Test [1] concerns PMN infiltration. Kind of test: Zymosan A-induced peritonitis. Format: in vivo, FVB mice. To be noted: for inhibition of PMN/leukocyte infiltration: i.v. bolus before zymosan A, lavage at 2 h. As to the method:
(§1) FIG. 5 depicts Bioimpact properties of omega-3-derived Resolvins. A) Human glioma cells: Inhibition of TNF-stimulated IL-1β transcripts DBTRG-05MG cells 10^6/ml were stimulated with 50 ng/ml of human recombinant TNFα for 16 hours to induce expression of IL-1β transcripts. Concentration dependence with COX-2 products: 17-HDHA (n), 13-HDHA (l)and di-/tri-HDHA (n). […] (insets) Results are representative of RT-PCR gels of MG cells exposed to 100 nM of 13-HDHA or 17-HDHA and graphed after normalization of the IL-1β transcripts using GAPDH. B) Influence of eicosanoids and docosanoids on fMLP-induced neutrophil migration across micovascular endothelial monolayers Neutrophils (1×10^6 cells/monolayer) were exposed to vehicle containing buffer, or indicated concentrations of aspirin-triggered LXA4 analog (closed diamonds) 5S,12,18R-triHEPE (closed squares), 17R-HDHA (closed circles) or 13-HDHA (closed triangles) for 15 minutes at 37° C. Neutrophils were then layered on HMVEC monolayers and stimulated to transmigrate by a 10^−8 M fMLP gradient for 1 hr at 37° C. Transmigration was assessed by quantitation of the neutrophil marker myeloperoxidase. Results are presented as mean±SEM number of PMN (n=8-12 monolayers per condition). C) Reduction of PMN in murine peritonitis and skin pouch peritonitis: Compounds (100 ng in 120 μL sterile saline) were injected by intravenous bolus injection into the mouse tail vein and followed by 1 ml zymosan A (1 mg/ml) into the peritoneum. Peritoneal lavages were collected (2 h) and cell types were enumerated.
Human PMN transendothelial migration was quantitated by monitoring myeloperoxidase (MPO) an azurophilic granule marker as in (34, 37). Inflammatory exudates were initiated with intrapouch injection of recombinant mouse TNFα (100 ng/pouch; R&D Systems) into dorsal air pouches (10) of 6-8 wk male FVB mice fed laboratory rodent diet 5001 (Lab Diet, Purina Mills) containing less than 0.25% arachidonic acid, 1.49% EPA and 1.86% DHA followed by ASA (500 μg) at 3.5 h and 300 μg DHA/pouch at 4 h post-TNFα injection. At 6 h (within the resolution phase), pouches were lavaged (3 ml saline) and exudate cells were enumerated Inhibition of TNFα stimulated (100 ng/pouch) PMN infiltration with i.v. tail injection of either 17R-HDHA (as prepared with COX-2 vide infra), 5S,12,18R-HEPE, or a 15-epi-LXA4 analog were determined with pouch lavages taken at 4 h. Peritonitis was performed using 6 to 8-week-old FVB male mice (Charles River Laboratories) fed laboratory Rodent Diet 5001 (Purina Mills) that were anesthetized with isoflurane, and compounds to be tested (125 μl) were administered intravenously. Zymosan A in 1 ml (1 mg/ml) was injected ˜1-1.5 min later in the peritoneum. Each test compound (100 ng/incubation, i.e. 17R-HDHA in ethanol) or vehicle alone was suspended in ˜5 μl and mixed in sterile saline 120 μl. Two hours after the intraperitoneal injections, and in accordance with the Harvard Medical Area Standing Committee on Animals protocol #02570, mice were euthanized and peritoneal lavages rapidly collected for enumeration.
Peritonitis was induced in 6 to 8 week old male FVB mice by peritoneal injection of 1 mg Zymosan A. Compounds 4,17S and 10,17S-diHDHA were injected by intravenous bolus injection, 1.5 minutes before Zymosan A treatment. Two hours after induction of peritonitis, rapid peritoneal lavages were collected and cell type enumeration was performed.

Test [2] relates to PMN infiltration. Kind of test: Zymosan A-induced peritonitis. The class given is in vivo, FVB mice. The settings on record: dose increased to 200 ng, intravenous bolus.
For test [3], the system named is thromboxane and prostanoids. Kind of test: Thromboxane and prostanoid production in air pouch exudates. Format: in vivo, FVB mice. To be noted: ASA 500 μg per pouch.
Excerpt: It is noteworthy that the Lab Diet 5001 used to feed these mice contained 1.86% DHA and 1.49% EPA with <0.25% arachidonic acid (Purina Mills).
In another test the target is T1, human recombinant COX-2 (Homo sapiens, UniProt P35354).
T1 construct: made in house; host or cells: Sf9 insect cells (microsomal fractions)
T1 sequence (P35354 18-604): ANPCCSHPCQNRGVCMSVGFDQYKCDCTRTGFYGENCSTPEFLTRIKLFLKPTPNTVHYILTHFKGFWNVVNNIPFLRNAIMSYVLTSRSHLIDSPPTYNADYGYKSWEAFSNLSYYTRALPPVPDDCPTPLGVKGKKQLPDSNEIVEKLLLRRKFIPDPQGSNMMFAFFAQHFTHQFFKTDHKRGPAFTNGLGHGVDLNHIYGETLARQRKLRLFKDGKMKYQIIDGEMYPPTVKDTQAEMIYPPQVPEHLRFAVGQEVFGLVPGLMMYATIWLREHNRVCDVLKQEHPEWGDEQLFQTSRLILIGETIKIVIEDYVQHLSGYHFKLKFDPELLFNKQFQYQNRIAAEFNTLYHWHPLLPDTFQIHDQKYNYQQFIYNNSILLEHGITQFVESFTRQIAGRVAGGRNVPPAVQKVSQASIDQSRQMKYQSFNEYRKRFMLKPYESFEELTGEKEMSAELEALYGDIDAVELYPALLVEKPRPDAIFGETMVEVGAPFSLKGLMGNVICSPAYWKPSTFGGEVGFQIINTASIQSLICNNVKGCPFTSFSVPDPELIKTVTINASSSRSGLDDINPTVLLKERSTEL
Kind of test: Impact of NSAIDs on COX-2 conversion of DHA. Format: biochemical. The protocol: (§2) Human recombinant COX-2 was overexpressed in Sf9 insect cells (ATCC). The microsomal fractions (˜8 μl) were suspended in Tris (100 mM, pH 8.0) as in (35). ASA was incubated (˜2 mM, 37° C., 30 min) with COX-2 before addition of DHA (10 μM), or in some experiments [1-^14C]-labeled DHA (from American Radiolabeled Chemicals, Inc.), and conversions were monitored in parallel using [1^−14C]-labeled C20:4 (with ASA) (as in FIG. 2; also see text).
(§3) Incubations were extracted with deuterium-labeled internal standards (15-HETE and C20:4) for LC-MS-MS analysis as in (33) using a Finnigan LCQ liquid chromatography ion trap tandem mass spectrometer (San Jose, Calif.) equipped with a LUNA C18-2 (150×2 mm×5 μm or 100×2 mm×5 μm) column and a rapid spectra scanning UV diode array detector that monitored UV absorbance ˜0.2 min prior to samples entering the MS-MS. All intact cell incubations and in vivo exudates were stopped with 2 ml cold methanol and kept at −80° C. for >30 minutes. Samples were extracted using C18 solid phase extraction and analyzed using GC-MS (see Table 2) (Hewlett-Packard), thin layer chromatography or tandem liquid chromatography-mass spectrometry (LC-MS-MS). Also, a Chiralcel OB-H column (4.6×250 mm; J. T. Baker) was used to determine R and S alcohol configurations of monohydroxy-PUFA using isocratic mobile phase (hexane:isopropanol; 97.5:2.5, vol:vol, with a 0.6 ml/min flow rate). Detailed procedures for isolation, quantitation and structural determination of lipid-derived mediators were recently reported (36) and used here essentially as reported for elucidation of novel products.
Results are the mean±SEM, n=3. Products were extracted, identified, and quantitated using deuterium internal standards and LC-MS-MS (see Methods).

The target in a further test is T2, ASA-acetylated COX-2 (Homo sapiens, UniProt P35354).
T2 construct: made in house; host or cells: Sf9 insect cells (microsomal fractions), then treated with about 2 mM ASA
T2 sequence (P35354 18-604): T1 sequence (P35354 18-604)
Kind of test: Substrate conversion by ASA-acetylated COX-2. Format: biochemical. The settings on record: C20:4 to 15R-HETE, DHA to 17R-HDHA; mean±S.E.M., n=3. The protocol:
as §2
as §3, with “Also, a Chiralcel OB-H column (4.6×250 mm; J. T. Baker) was used to determine R and S alcohol configurations of monohydroxy-PUFA using isocratic mobile phase (hexane:isopropanol; 97.5:2.5, vol:vol, with a 0.6 ml/min flow rate).” left out

Another test deals with human PMN. Kind of test: fMLP-induced neutrophil migration across microvascular endothelial monolayers (MPO). The class given is cell-based. To be noted: nM range; 10^-8 M fMLP gradient, 1 hr. The protocol:
FIG. 5 depicts Bioimpact properties of omega-3-derived Resolvins. A) Human glioma cells: Inhibition of TNF-stimulated IL-1β transcripts DBTRG-05MG cells 10^6/ml were stimulated with 50 ng/ml of human recombinant TNFα for 16 hours to induce expression of IL-1β transcripts. Concentration dependence with COX-2 products: 17-HDHA (n), 13-HDHA (l)and di-/tri-HDHA (n). […] (insets) Results are representative of RT-PCR gels of MG cells exposed to 100 nM of 13-HDHA or 17-HDHA and graphed after normalization of the IL-1β transcripts using GAPDH. […] Transmigration was assessed by quantitation of the neutrophil marker myeloperoxidase. […]
Human PMN transendothelial migration was quantitated by monitoring myeloperoxidase (MPO) an azurophilic granule marker as in (34, 37). […] At 6 h (within the resolution phase), pouches were lavaged (3 ml saline) and exudate cells were enumerated Inhibition of TNFα stimulated (100 ng/pouch) PMN infiltration with i.v. tail injection of either 17R-HDHA (as prepared with COX-2 vide infra), 5S,12,18R-HEPE, or a 15-epi-LXA4 analog were determined with pouch lavages taken at 4 h. […]

The subject of test [4] is leukotrienes. Nature of the test: Leukotriene formation by human PMN. The settings on record: in vitro, n=4, not shown. The class given is cell-based.
The subject of test [5] is IL-1β transcripts in DBTRG-05MG cells. Nature of the test: Inhibition of TNF-stimulated IL-1β transcripts (RT-PCR). Format: cell-based, human. The settings on record: Homo sapiens, DBTRG-05MG; 50 ng/ml TNFα, 16 h; read-out: IC50, inhibition of TNFα-induced IL-1β transcripts / cytokine expression. As to the method:
as §1, with “C) Reduction of PMN in murine peritonitis and skin pouch peritonitis: Compounds (100 ng in 120 μL sterile saline) were injected by intravenous bolus injection into the mouse tail vein and followed by 1 ml zymosan A (1 mg/ml) into the peritoneum. Peritoneal lavages were collected (2 h) and cell types were enumerated.” left out
Human glioma cells DBTRG-05MG cells (ATCC) were cultured as recommended by ATCC. […] Results were analyzed using the NIH Image program (http://rsb.info.nih.gov/nih-image).

The next test relates to leukocyte infiltration. Nature of the test: TNFα-induced dorsal air pouch. Format: in vivo, FVB mice.
Test [6] concerns leukotrienes. Kind of test: Leukotriene formation in murine exudates. The class given is in vivo. To be noted: n=4, not shown.

From US8933270B2, “Use of docasatrienes, resolvins, and their stable analogs in the treatment of airway diseases and asthma” (The Brigham and Women's Hospital, Inc., priority 2002, dated 2015) come the findings set out here.

On to `CCC=CCC(O)C=CC=CCC=CCC=CC=CC(O)CCC(=O)O` (stereo not drawn) [4,17S-diHDHA], for which, in the test with PMN infiltration [1] (PMN/leukocyte infiltration, FIG. 16 and FIG. 18), the “potency relative to comparator at equal dose” value is “approximately half as potent as 10,17-docosatriene”. Besides, in the test on PMN infiltration [1], the “inhibition of PMN/leukocyte infiltration” value is given as “dose-dependent inhibition”. Besides, the “effectiveness relative to 10,17-docosatriene” value with PMN infiltration [2] is given as “essentially equally effective”.

Regarding `CC(=O)Oc1ccccc1C(=O)O` [ASA, aspirin], in test [3], the “in vivo production of thromboxane and prostanoids” value is “completely inhibited”. In addition, the “% Increase of 17-HDHA” value on human recombinant COX-2 (NSAID incubated 30 min with COX-2, ASA 2 mM, indomethacin 200 μM, acetaminophen 500 μM, NS398 100 μM, mean±SEM, n=3) is given as 97.8 ± 2.0%. In addition, the inhibition at 2000 µM on human recombinant COX-2 (read-out: % Inhibition of 13-HDHA) is 85.7 ± 5.6%.

Regarding `CCCCC/C=C\C/C=C\C/C=C\C/C=C\CCCC(=O)O` [C20:4, arachidonic acid], the substrate conversion at ASA-acetylated COX-2 is 67%±5%.

With `CC/C=C\CC(O)/C=C/C=C\C/C=C\C/C=C\C/C=C\CCC(=O)O` (stereo not drawn) [17R-HDHA, 17-hydroxy-docosa-4Z,7Z,10Z,13Z,15E,19Z-hexaenoic acid], the “direct impact on PMN transmigration across endothelial monolayers” value in the test with human PMN was “did not directly inhibit”. Besides, the formation of leukotrienes result with leukotrienes [4] and in the test on leukotrienes [6] was “prevented formation of leukotrienes” throughout. Further, the “inhibition of PMN/leukocyte infiltration” value in the test on PMN infiltration [1] was “potent inhibitor”. Also, the IC50 in test [5] was ~0.05 nM. The “regulation of PMN/leukocyte recruitment into the air pouch” value with leukocyte infiltration (i.v. or local (intrapouch) administration, lavage at 4 h) was “did regulate in vivo PMN exudate cell numbers”.

For `CC[C@@H](O)/C=C/C=C\C[C@@H](O)/C=C/C=C/C=C\[C@@H](O)CCCC(=O)O` [EPA-derived 5,12,18R series product], the “prevention of leukocyte diapedesis and exudate formation relative to 15-epi-lipoxin A4 stable analog” value in the test with leukocyte infiltration (FIG. 5C) is “as effective as a potent stable analog of 15-epi-lipoxin A4”.

Broadly, the inhibition is the drop in the measured response relative to a control, in per cent.
